According to ChEMBL document CHEMBL1212836, “Pyridazinopsoralens of wide chemotherapeutic interest” (Bioorg Med Chem, 2010):
pIC50: −log10 of the molar value. Calls of active or inactive are those of the source. The rule behind the calls is not given here.

Legend:
[1] = molecular target: DNA topoisomerase 2-alpha (Homo sapiens) (UniProt P11388); assay: Inhibition of human recombinant topoisomerase 2alpha-mediated relaxation of supercoiled pBR322 DNA after 60 mins by agarose gel electrophoresis
HeLa [2] = assay: Cytotoxicity against human HeLa cells after 24 hrs by trypan blue assay in presence of 0.789 J cm-2 of UVA light; assay type: functional, cell-based; settings: light or radiation study
HeLa [3] = assay: Cytotoxicity against human HeLa cells treated under dark condition after 24 hrs by trypan blue assay; assay type: functional, cell-based
HL-60 [4] = assay: Cytotoxicity against human HL60 cells after 24 hrs by trypan blue assay in presence of 0.789 J cm-2 of UVA light; assay type: functional, cell-based; settings: HL-60, light or radiation study
HL-60 [5] = assay: Cytotoxicity against human HL60 cells treated under dark condition after 24 hrs by trypan blue assay; assay type: functional, cell-based; settings: HL-60, 24 h
HL-60 [6] = assay: Cytotoxicity against human HL60 cells treated under dark condition after 72 hrs by trypan blue assay; assay type: functional, cell-based; settings: HL-60, 72 h
Nucleic Acid [7] = assay: Binding affinity to Salmon testes DNA assessed as drug-DNA complex formation at drug/DNA ratio 0.02 to 0.08 by linear flow dichroism method; assay type: nucleic-acid assay; settings: Salmonidae
Nucleic Acid [8] = assay: Induction of Escherichia coli supercoiled pBR322 DNA cleavage at 50 uM after 30 mins by gel electrophoresis; assay type: nucleic-acid assay
Nucleic Acid [9] = assay: Stabilization of supercoiled pBR322 DNA-human recombinant topoisomerase 2 complex assessed as linear DNA formation at 8 uM after 60 mins; assay type: nucleic-acid assay; settings: Escherichia coli
Nucleic Acid [10] = assay: Stabilization of supercoiled pBR322 DNA-human recombinant topoisomerase 2 complex assessed as linear DNA formation at 5 to 50 uM after 60 mins; assay type: nucleic-acid assay; settings: Escherichia coli
Nucleic Acid [11] = assay: Induction of Escherichia coli supercoiled pBR322 DNA cleavage at 5 uM after 30 mins by gel electrophoresis; assay type: nucleic-acid assay
Nucleic Acid [12] = assay: Induction of Escherichia coli supercoiled pBR322 DNA cleavage at up to 200 uM after 30 mins by gel electrophoresis; assay type: nucleic-acid assay

DNA topoisomerase 2-alpha (Homo sapiens), sequence (P11388 whole entry): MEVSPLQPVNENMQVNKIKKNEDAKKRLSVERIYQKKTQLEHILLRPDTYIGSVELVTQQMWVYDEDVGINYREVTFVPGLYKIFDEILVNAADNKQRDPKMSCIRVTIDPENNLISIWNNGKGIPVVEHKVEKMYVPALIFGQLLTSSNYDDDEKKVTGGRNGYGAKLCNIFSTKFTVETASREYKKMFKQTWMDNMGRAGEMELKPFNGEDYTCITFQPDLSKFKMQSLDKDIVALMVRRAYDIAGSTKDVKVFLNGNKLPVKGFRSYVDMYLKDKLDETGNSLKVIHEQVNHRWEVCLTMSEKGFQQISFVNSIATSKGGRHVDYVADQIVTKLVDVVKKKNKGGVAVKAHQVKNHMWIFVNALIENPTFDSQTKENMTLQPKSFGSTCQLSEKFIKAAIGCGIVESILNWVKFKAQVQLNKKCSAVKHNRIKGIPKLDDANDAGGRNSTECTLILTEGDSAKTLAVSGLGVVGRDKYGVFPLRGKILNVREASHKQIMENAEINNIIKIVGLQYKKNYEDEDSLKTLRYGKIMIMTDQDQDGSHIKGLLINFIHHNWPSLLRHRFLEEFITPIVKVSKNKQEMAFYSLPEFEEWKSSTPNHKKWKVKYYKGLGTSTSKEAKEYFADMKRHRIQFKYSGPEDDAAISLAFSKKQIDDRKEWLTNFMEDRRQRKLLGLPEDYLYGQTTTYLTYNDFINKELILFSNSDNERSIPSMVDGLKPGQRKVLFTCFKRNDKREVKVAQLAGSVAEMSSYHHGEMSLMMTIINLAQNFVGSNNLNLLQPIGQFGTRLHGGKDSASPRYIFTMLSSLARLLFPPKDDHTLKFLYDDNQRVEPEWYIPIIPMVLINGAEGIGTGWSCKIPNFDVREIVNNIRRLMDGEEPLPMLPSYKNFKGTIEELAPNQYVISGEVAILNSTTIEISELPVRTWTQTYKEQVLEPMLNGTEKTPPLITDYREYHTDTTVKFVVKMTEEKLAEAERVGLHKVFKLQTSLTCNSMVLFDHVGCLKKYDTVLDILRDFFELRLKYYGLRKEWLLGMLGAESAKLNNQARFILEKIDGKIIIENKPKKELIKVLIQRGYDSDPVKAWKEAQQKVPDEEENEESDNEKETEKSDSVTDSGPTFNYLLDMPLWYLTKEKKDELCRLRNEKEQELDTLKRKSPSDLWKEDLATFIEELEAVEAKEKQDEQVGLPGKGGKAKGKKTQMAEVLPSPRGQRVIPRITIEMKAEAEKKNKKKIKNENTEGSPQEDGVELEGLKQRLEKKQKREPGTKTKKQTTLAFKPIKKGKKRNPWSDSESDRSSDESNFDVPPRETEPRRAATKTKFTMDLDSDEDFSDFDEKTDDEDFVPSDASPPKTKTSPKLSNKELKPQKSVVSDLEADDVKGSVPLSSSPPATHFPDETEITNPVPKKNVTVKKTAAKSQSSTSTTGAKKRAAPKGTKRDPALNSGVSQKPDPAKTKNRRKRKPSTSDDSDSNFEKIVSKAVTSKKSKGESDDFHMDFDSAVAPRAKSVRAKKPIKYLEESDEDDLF

## CCN(CC)CCCNC(=O)c1nncc2oc3c(C)c4oc(=O)cc(C)c4cc3c12
[1]
  Activity: Dose-dependent effect
HeLa [2]
  pIC50: 5.13
HeLa [3]
  pIC50: 4.94
HL-60 [4]
  pIC50: 5.66
HL-60 [5]
  pIC50: 5.68
HL-60 [6]
  pIC50: 6.05
Nucleic Acid [7]
  Activity: Active
Nucleic Acid [8]
  Activity: Active

## CCN(CC)CCCNC(=O)c1nnc(C(=O)NCCCN(CC)CC)c2c1oc1c(C)c3oc(=O)cc(C)c3cc12
[1]
  Activity: Dose-dependent effect
Nucleic Acid [9]
  Activity: Active
Nucleic Acid [10]
  Activity: inactive
HeLa [2]
  pIC50: 5.46
HeLa [3]
  pIC50: 4.83
HL-60 [4]
  pIC50: 6.10
HL-60 [5]
  pIC50: 6.05
HL-60 [6]
  pIC50: 6.43
Nucleic Acid [7]
  Activity: Active
Nucleic Acid [11]
  Activity: Active

## CCN(CC)CCNC(=O)c1nnc(C(=O)NCCN(CC)CC)c2c1oc1c(C)c3oc(=O)cc(C)c3cc12
HeLa [2]
  pIC50: 5.36
HeLa [3]
  pIC50: 4.76
HL-60 [4]
  pIC50: 5.46
HL-60 [5]
  pIC50: 5.92
HL-60 [6]
  pIC50: 6.24
Nucleic Acid [7]
  Activity: Active

## Cc1cc(=O)oc2c(C)c3oc4c(C(=O)NCCN(C)C)nnc(C(=O)NCCN(C)C)c4c3cc12
HeLa [2]
  pIC50: 5.62
HeLa [3]
  pIC50: 4.92
HL-60 [4]
  pIC50: 5.89
HL-60 [5]
  pIC50: 6.05
HL-60 [6]
  pIC50: 6.39
Nucleic Acid [7]
  Activity: Active

## COc1cc(NS(C)(=O)=O)ccc1Nc1c2ccccc2nc2ccccc12
Nucleic Acid [9]
  Activity: Active

## Cc1cc(=O)oc2c(C)c3oc4cnncc4c3cc12
[1]
  Activity: Dose-dependent effect
HeLa [2]
  pIC50: 5.42
HeLa [3]
  pIC50: 5.07
HL-60 [4]
  pIC50: 5.39
HL-60 [5]
  pIC50: 5.41
HL-60 [6]
  pIC50: 5.59
Nucleic Acid [7]
  Activity: Active
Nucleic Acid [12]
  Activity: inactive

## COc1c2occc2cc2ccc(=O)oc12 [METHOXSALEN]
HL-60 [5]
  pIC50: < 4.70
HL-60 [6]
  pIC50: < 4.70

## Cc1cc(=O)oc2c(C)c3oc4c(C(=O)NCCCN(C)C)nnc(C(=O)NCCCN(C)C)c4c3cc12
HeLa [2]
  pIC50: 5.43
HeLa [3]
  pIC50: 4.94
HL-60 [4]
  pIC50: 5.59
HL-60 [5]
  pIC50: 5.42
HL-60 [6]
  pIC50: 6.21
Nucleic Acid [7]
  Activity: Active
